Entries after “also recorded” stand apart in the source; their conditions may differ. Square brackets hold non-standard residues; d marks the D form. Ends that are not written are not given here.

One experiment concerns S. vaccaria PCY1. Briefly: In vitro assay of recombinant S. vaccaria PCY1 with wild type and mutant presegetalin substrates, products detected by LC/MS. It counts as biochemical, Saponaria vaccaria. On the set-up: key to CP (cyclic peptide product detected by LC/MS after in vitro assay) / LP (linear peptide product detected by LC/MS after in vitro assay): +=presence; −=absence. The following applies: for CP (cyclic peptide product detected by LC/MS after in vitro assay) / LP (linear peptide product detected by LC/MS after in vitro assay): substrates tested for cyclization by S. vaccaria PCY1; for cyclic peptide production by S. vaccaria PCY1 (in words) / linear peptide production by S. vaccaria PCY1 (in words): LC/MS and MS/MS. As to the method:
The gene corresponding to S. vaccaria PCY1 was cloned and expressed in E. coli with a His-tag. HisPur Cobalt Resin™ (Thermo Scientific) was used for purification of recombinant PCY1. The purified PCY1 was quantified using BCA method (Pierce; http://http://www.piercenet.com/) with BSA as a calibration standard. The in vitro assay contained 20 mM Tris buffer (pH 8.5), 100 mM NaCl, 5 mM DTT, 0.2 mg BSA, and 1.5 μg of substrates (wild type and mutant presegetalins, procured from Bio Basic Inc with >90% purity) and was initiated by the addition of 0.3 μg of PCY1, in a total reaction volume of 100 μl. The assay was incubated at 30° C. for up to 1 h and stopped by placing reactions in dry ice. The assays were lyophilized, re-suspended in methanol, evaporated and re-suspended in 50:50 v/v methanol/water for LC/MS analysis.
Ion trap ESI+ LC/MS/MS analysis was used to detect production of cyclic peptides using an Agilent 6320 Ion Trap LC/MS system under default Smart Parameter settings. The analyzer and ion optics were adjusted to achieve proper resolution (Agilent Installation Guide #G2440-90105) using the ESI Tuning Mix (Agilent #G2431A). The mass spectrometer scanned from 50 to 2200 mass units at 8100 mass units sec^−1 with an expected peak width of 0.35 atomic mass units. For auto MS/MS, the trap isolation width was 4 atomic mass units. The associated Agilent 1200 LC was fitted with a Zorbax 300 EXTEND-C18 column (150×2.1 mm, 3.5 μm particle size) maintained at 35° C. The binary solvent system consisted of 90:10 v/v water/acetonitrile containing 0.1% formic acid and 0.1% ammonium formate (solvent A) and 10:90 v/v water/acetonitrile containing 0.1% formic acid and 0.1% ammonium formate (solvent B). The separation gradient was 90:10 A/B to 50:50 A/B in 3 ml over 20 min.
In order to characterize substrate specificity of PCY1 and understand the segetalin A biosynthetic mechanism, a total of 44 substrates (Table 3) were tested for the PCY1 activity and the results are briefly summarized in Table 3. The last two columns in Table 3 summarize product type detected by LC/MS after in vitro assays (CP is cyclic peptide and LP is linear peptide, +=presence, −=absence, NA=not applicable). The 44 substrates were classified as follows: • (A) Presegetalin A1 [14,32], a wild type (WT) precursor of segetalin A • (B) Truncated mutants of presegetalin A1[14,32] • (C) Alanine scanning mutants corresponding to variants of the mature segetalin A sequence • (D) Alanine scanning mutants of the C-terminal region of presegetalin A1[14,32] • (E) D-amino acid mutants corresponding to variants of the mature segetalin A sequence • (F) Insertion mutants corresponding to variants of the mature segetalin A sequence • (G) Other A-class and F-class presegetalins • (H) Putative cyclic peptide precursors from Dianthus caryophyllus

The test system of experiment [1] is Dianthus superbus PCY1-c250. Nature of the experiment: In vitro assay of recombinant Dianthus superbus PCY1-c250 with presegetalin substrates, LC/MS. In kind it is biochemical. The source says:
(§1) To test for activity of the homologues of S. vaccaria PCY1, two cDNAs encoding were cloned from Dianthus superbus (c250 and c1141 contigs) and one from Silene vulgaris (c150 contig) essentially as described for Saponaria vaccaria PCY1 in Example 2. These were named Dianthus superbus Pcy1-c250, Dianthus superbus Pcy1-c1141 and Silene vulgaris Pcy1-c150, Briefly, gene specific forward and reverse primers were used to PCR amplify the aforementioned contigs based on homologue identification in EST collections from Dianthus leaves and Silene roots. The Dianthus superbus (c250 and c1141 contigs) and Silene vulgaris (c150 contig) PCY1 homologues were assayed with 15 μg/mL presegetalin A1[14,32] in vitro as previously described for semi-purified plant extracts to determine whether they can catalyze the production of segetalin A from presegetalin A1[14,32]. The assays were initiated by the addition of 120 ng (c250), or 138 ng (c1141) purified recombinant Dianthus superbus or 4 μg Silene vulgaris Pcy1 respectively, in a total reaction volume of 100 μL. […] Thus, there are additional enzymes in the Caryophyllaceae family, which have the same enzymatic activity as S. vaccaria PCY1.
Dianthus superbus PCY1-c250 was also assayed with the alanine scan mutants and the activities were compared with those of S. vaccaria PCY1.

Experiment [2] concerns Dianthus superbus PCY1-c1141. Briefly: In vitro assay of recombinant Dianthus superbus PCY1-c1141 with presegetalin substrates, LC/MS. In kind it is biochemical.
Text: as §1
Seven mutant peptides containing D-amino acids were synthesized (No. 26 to 32 in Table 3) and tested with S. vaccaria PCY1 under optimized in vitro conditions. In initial experiments, each amino acid corresponding to segetalin A was substituted with its D-amino acid consecutively from position 15 to 19 (No. 26 to 30). Glycine at position 14 is achiral and no substitution was required. […] To test this possibility two peptides were synthesized No. 31 and No. 32 in Table 3. […] The cyclic peptides were detected as diagnostic ions (M+H)^+ and (M+Na)^+ in LC/MS and their presence was further confirmed by MS/MS analysis. […] The cyclic peptide produced from No. 32 has alternating D- and L-forms of amino acids (with the exception of the glycine), which gives it the potential to self-assemble into nanotube under appropriate conditions (Gadhiri 1993).

The subject of experiment [3] is Silene vulgaris Pcy1-c150. Nature of the experiment: In vitro assay of recombinant Silene vulgaris PCY1-c150 with presegetalin A1[14,32], LC/MS. It counts as biochemical. The following applies: 15 μg/mL presegetalin A1[14,32], 4 μg enzyme.
Text: as §1

S. vaccaria PCY1, sequence (as listed by the source): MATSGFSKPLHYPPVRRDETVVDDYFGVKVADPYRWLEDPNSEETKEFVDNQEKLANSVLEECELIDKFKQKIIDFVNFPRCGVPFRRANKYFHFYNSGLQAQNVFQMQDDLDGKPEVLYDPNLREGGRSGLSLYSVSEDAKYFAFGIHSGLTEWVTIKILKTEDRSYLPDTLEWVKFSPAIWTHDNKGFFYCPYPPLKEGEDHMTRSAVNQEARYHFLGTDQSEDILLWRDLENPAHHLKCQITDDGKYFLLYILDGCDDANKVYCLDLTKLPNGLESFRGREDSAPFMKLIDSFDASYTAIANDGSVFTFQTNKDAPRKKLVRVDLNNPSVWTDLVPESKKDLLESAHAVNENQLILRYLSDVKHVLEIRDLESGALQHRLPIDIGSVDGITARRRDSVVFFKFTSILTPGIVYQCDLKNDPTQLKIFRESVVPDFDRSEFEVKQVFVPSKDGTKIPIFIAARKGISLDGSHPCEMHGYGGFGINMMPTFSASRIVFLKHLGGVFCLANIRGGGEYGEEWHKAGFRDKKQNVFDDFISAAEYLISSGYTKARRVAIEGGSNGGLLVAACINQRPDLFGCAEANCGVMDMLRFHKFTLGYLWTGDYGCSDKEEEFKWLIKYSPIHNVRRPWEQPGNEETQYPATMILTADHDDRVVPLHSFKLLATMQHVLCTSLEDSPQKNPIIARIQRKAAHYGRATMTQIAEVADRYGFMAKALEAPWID
Dianthus superbus PCY1-c250, sequence (as listed by the source): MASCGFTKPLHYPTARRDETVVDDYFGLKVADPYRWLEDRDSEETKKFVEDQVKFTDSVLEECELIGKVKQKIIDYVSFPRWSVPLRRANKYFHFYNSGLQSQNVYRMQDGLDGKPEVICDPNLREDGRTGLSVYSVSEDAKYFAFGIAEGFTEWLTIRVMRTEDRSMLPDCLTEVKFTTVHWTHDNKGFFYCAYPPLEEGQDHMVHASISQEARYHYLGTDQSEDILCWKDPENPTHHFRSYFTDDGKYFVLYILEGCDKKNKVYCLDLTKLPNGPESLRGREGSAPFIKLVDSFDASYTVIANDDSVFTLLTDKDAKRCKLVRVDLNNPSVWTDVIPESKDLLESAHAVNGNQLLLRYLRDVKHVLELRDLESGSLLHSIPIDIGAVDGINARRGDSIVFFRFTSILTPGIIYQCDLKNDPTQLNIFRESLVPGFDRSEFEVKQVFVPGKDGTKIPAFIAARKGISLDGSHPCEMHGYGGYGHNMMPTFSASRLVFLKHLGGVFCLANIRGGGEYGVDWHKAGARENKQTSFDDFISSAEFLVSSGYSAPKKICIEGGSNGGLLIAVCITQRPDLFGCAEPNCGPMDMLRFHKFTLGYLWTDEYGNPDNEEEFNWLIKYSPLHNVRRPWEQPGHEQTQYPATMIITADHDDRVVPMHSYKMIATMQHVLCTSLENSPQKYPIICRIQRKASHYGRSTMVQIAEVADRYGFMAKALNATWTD
Dianthus superbus PCY1-c1141, sequence (as listed by the source): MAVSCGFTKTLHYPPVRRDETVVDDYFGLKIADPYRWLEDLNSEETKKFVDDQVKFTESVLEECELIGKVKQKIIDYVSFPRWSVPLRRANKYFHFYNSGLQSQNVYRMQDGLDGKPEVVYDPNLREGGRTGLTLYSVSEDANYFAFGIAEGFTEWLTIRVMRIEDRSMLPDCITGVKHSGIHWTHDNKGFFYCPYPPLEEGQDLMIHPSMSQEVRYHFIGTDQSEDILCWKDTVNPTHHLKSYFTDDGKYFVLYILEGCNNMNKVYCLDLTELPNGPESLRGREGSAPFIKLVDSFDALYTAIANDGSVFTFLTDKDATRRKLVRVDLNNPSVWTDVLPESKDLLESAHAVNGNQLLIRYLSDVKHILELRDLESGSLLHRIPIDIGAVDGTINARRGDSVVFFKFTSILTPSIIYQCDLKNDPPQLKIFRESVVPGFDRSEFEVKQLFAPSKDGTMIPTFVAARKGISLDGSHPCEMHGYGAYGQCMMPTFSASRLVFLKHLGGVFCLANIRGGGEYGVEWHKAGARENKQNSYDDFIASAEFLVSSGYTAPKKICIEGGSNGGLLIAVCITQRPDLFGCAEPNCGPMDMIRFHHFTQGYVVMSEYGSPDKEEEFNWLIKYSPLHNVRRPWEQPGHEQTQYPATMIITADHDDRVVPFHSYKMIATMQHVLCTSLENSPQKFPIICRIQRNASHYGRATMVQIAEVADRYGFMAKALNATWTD
Silene vulgaris Pcy1-c150, sequence (as listed by the source): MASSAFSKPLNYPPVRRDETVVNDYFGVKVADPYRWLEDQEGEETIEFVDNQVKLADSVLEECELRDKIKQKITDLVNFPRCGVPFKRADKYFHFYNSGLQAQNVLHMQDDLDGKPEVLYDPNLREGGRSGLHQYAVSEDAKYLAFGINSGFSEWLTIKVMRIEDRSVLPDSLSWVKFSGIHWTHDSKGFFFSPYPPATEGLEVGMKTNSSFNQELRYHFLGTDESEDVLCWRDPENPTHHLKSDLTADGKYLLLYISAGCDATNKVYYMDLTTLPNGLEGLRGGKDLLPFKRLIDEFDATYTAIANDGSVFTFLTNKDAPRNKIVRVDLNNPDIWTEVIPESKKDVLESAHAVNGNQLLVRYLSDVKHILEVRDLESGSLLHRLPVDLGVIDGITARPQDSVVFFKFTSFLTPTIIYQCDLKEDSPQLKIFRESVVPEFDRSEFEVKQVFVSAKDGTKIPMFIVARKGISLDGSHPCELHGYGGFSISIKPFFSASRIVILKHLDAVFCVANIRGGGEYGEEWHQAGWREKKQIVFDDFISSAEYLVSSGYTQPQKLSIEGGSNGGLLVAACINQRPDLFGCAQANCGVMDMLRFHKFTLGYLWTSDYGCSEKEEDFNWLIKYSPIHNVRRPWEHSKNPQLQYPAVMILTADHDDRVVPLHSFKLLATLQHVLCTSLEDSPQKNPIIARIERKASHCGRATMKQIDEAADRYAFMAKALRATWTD

Consider “11 (GVPVAAFQAKDVENASAPV; Presegetalin A1[14,32] variant aa18 = alanine) [compound 11]”, for which, in the experiment on S. vaccaria PCY1, the “CP (cyclic peptide product detected by LC/MS after in vitro assay)” value (from here on “CP”) is on record as “+” and the “LP (linear peptide product detected by LC/MS after in vitro assay)” value (shortened to “LP”) was “−”. Further, in experiment [1], the “cyclic peptide production by D. superbus PCY1-c250 (in words)” value is given as “relatively more cyclic peptide than did S. vaccaria PCY1”.
For the substance “Presegetalin A1[14,32] (GVPVWAFQAKDVENASAPV; listed as Saponaria vaccaria) [No. 1]”, in the experiment with S. vaccaria PCY1, the “cyclic peptide production by S. vaccaria PCY1 (in words)” value is listed as “showed the formation of segetalin A” and the “linear peptide production by S. vaccaria PCY1 (in words)” value is “linear segetalin A”. In experiment [1], the “cyclic peptide production by D. superbus PCY1-c250 (in words)” value is listed as “strong enzymatic activity”. In addition, in experiment [2], the “cyclic peptide production by D. superbus PCY1-c1141 (in words)” value is “strong enzymatic activity”. In addition, in experiment [3], the “production of segetalin A by Silene vulgaris c150 polypeptide (in words)” value is “weaker than that of S. vaccaria PCY1”.
For the substance “36 (GLSFAFPAKDAENASSPV; Presegetalin D1[14,31]) [compound 36]”, in the experiment with S. vaccaria PCY1, the “cyclic peptide production by S. vaccaria PCY1 (in words)” value is reported as “cyclic peptide products were detected from all of them”, the “CP” value was “+” and the “LP” value was “+”.
Take “Presegetalin A1[14,32]F20A (GVPVWAAQAKDVENASAPV; Presegetalin A1[14,32] F20A) [No. 13]”: the “linear peptide production by S. vaccaria PCY1 (in words)” value in the experiment with S. vaccaria PCY1 is on record as “presence of linear peptide was confirmed by MS/MS analysis”.
Take “14 (GVPVWAFAAKDVENASAPV; Presegetalin A1[14,32] Q21A) [compound 14]”: in the experiment with S. vaccaria PCY1, the “cyclic peptide production by S. vaccaria PCY1 (in words)” value is “sensitive”, the “CP” value is recorded as “+” and the “LP” value was “+”.
Regarding “35 (GVAWAFQAKDVENASAPV; Presegetalin B1[14,31]) [compound 35]”, in the experiment with S. vaccaria PCY1, the “cyclic peptide production by S. vaccaria PCY1 (in words)” value is recorded as “cyclic peptide products were detected from all of them”, the “CP” value is reported as “+” and the “LP” value is given as “−”.
On to “15 (GVPVWAFQVKDVENASAPV; Presegetalin A1[14,32] A22V) [compound 15]”, for which, in the experiment with S. vaccaria PCY1, the “CP” value is “+” and the “LP” value is listed as “+”.
On to “12 (GVPVWVFQAKDVENASAPV; Presegetalin A1[14,32] variant aa19 = valine) [compound 12]”, for which, in the experiment on S. vaccaria PCY1, the “cyclic peptide production by S. vaccaria PCY1 (in words)” value is listed as “neither cyclic peptide nor linear peptide was detected”, the “linear peptide production by S. vaccaria PCY1 (in words)” value is recorded as “neither cyclic peptide nor linear peptide was detected”, the “CP” value was “−” and the “LP” value is reported as “−”.
Regarding “18 (GVPVWAFQAKDAENASAPV; Presegetalin A1[14,32] V25A) [compound 18]”, in the experiment on S. vaccaria PCY1, the “cyclic peptide production by S. vaccaria PCY1 (in words)” value was “relatively higher amounts of segetalin A than that produced from WT substrate”, the “CP” value is “+” and the “LP” value is on record as “+”.
On to “31 (GV[dP]VAAFQAKDVENASAPV) [compound 31]”, for which, in the experiment on S. vaccaria PCY1, the “cyclic peptide production by S. vaccaria PCY1 (in words)” value is recorded as “made cyclic peptides”, the “CP” value was “+” and the “LP” value is recorded as “−”. For the same substance, in experiment [2], the “cyclic peptide production by D. superbus PCY1-c1141 (in words)” value was “made cyclic peptides”.
Consider “24 (GVPVWAFQAKDVENASAAV; Presegetalin A1[14,32] P31A) [compound 24]”, for which, in the experiment on S. vaccaria PCY1, the “cyclic peptide production by S. vaccaria PCY1 (in words)” value was “sensitive”, the “CP” value is listed as “+” and the “LP” value was “+”. Also, the “segetalin A production, times lower than the WT substrate” value in the experiment with S. vaccaria PCY1 (alanine scanning mutants of C-terminal region, FIG. 9) is given as 11 times.
Take “7 (AVPVWAFQAKDVENASAPV; Presegetalin A1[14,32] variant aa14 = alanine) [compound 7]”: in the experiment with S. vaccaria PCY1, the “cyclic peptide production by S. vaccaria PCY1 (in words)” value is given as “less product”, the “linear peptide production by S. vaccaria PCY1 (in words)” value is “highest amount of linear peptide product”, the “CP” value is “+” and the “LP” value is “+”. In experiment [1], the “cyclic peptide production by D. superbus PCY1-c250 (in words)” value is listed as “no detectable cyclic peptide” and the “linear peptide production by D. superbus PCY1-c250 (in words)” value was “a large amount of linear peptide was detected”.
Turning to “16 (GVPVWAFQAADVENASAPV; Presegetalin A1[14,32] K23A) [compound 16]”, in the experiment with S. vaccaria PCY1, the “cyclic peptide production by S. vaccaria PCY1 (in words)” value is “sensitive”, the “CP” value is “+” and the “LP” value is recorded as “+”.
In the case of “1 (GVPVWAFQAKDVENASAPV; listed as Saponaria vaccaria) [compound 1]”, in the experiment with S. vaccaria PCY1, the “cyclic peptide production by S. vaccaria PCY1 (in words)” value was “segetalin A and the linear form (linear peptide) of segetalin A were produced; also recorded: cyclic peptide products were detected from all of them”; the “CP” value was “+”; the “LP” value is on record as “+”. The “PCY1 activity (total amount of segetalin A produced)” value in the experiment with S. vaccaria PCY1 (WT precursor, optimized assay condition) is recorded as 3 nmol/mg of protein/min.
Take “32 (GV[dP]V[dA]AFQAKDVENASAPV) [compound 32]”: in the experiment with S. vaccaria PCY1, the “cyclic peptide production by S. vaccaria PCY1 (in words)” value is “made cyclic peptides”, the “CP” value is reported as “+” and the “LP” value is recorded as “−”. Further, the “cyclic peptide production by D. superbus PCY1-c1141 (in words)” value in experiment [2] is given as “made cyclic peptides; also recorded: relatively more active; also recorded: higher than the activity of S. vaccaria PCY1”.
Regarding “6 (GVPVWA; Presegetalin A1[14,19]) [compound 6]”, the “CP” value with S. vaccaria PCY1 is “−”.
Regarding “21 (GVPVWAFQAKDVENVSAPV; Presegetalin A1[14,32] A28V) [compound 21]”, in the experiment with S. vaccaria PCY1, the “cyclic peptide production by S. vaccaria PCY1 (in words)” value is recorded as “sensitive”, the “CP” value is reported as “+” and the “LP” value was “+”.
